# Assay results from patent US5015661A, “Chromanes and their pharmaceutical compositions and methods” (Hoffmann-La Roche Inc., priority 1989, dated 1991).
# Structures can show the parent of a compound that is named as a salt.
# Molecular target: superoxide-dependent, iron-promoted lipid peroxidation of native rat heart cardiac lipid liposomes
# Assay: Lipid peroxidation inhibition (in vitro testing of antiperoxidative agents, ANTI-OX), hypoxanthine-xanthine oxidase-Fe3+.ADP, rat cardiac liposomes, MDA equivalents
# Format: biochemical
# Settings: 60 min, 37° C., screened at 1.0 μM, IC50 determined if inhibition ≥ 50%, read-out: ANTI-OX IC-50
# Procedure: The test system employs hypoxanthine-xanthine oxidase (XO)-Fe^3+. ADP as the free radical generator and purified, native rat-heart membrane phosphoglyceride in Hepes-KCl buffer, pH 7.4, as the substrate. Inhibition of superoxide-dependent, iron-promoted lipid peroxidation in the linear reaction phase (after 1 hour of reaction) is measured as the net formation of thiobarbituric acid (TBA)-reactive material. In this system, the TBA-reactive material, isolated by HPLC, is exclusively (>95%) malondialdehyde (MDA), a fragmentation end-product arising from fatty acyl hydroperoxides and cyclic endoperoxides. […]
# a) Isolation and purification of Rat Cardiac Lipid
# Conscious male Sprague-Dawley rats (~275g) maintained on a normal rodent diet were decapitated. The hearts were rapidly removed and perfused via the aorta with ice-cold 10 mM Hepes buffer, pH 7.4. The aorta and atria were removed, and the ventricular tissue was blotted and weighed (wet weight). The hearts were minced on ice with scissors and finally homogenized (100 mg tissue/ml ice-cold buffer) for 15 seconds (3×5 seconds) with a Tekmar Tissumizer at "maximal" setting. The homogenate was filtered through 4-ply cheesecloth, and homogenate lipids were extracted and purified by a modified Bligh-Dyer procedure (M.D. Marshall and M. Kates, Biochem. Biophys. Acta 260, 558 (1972). The cardiac lipids were stored in CHCl3 under nitrogen at -20° C. […]
# b) Preparation of Cardiac Liposomes
# Liposomes were prepared from extracted and purified, native rat heart cardiac lipid and were used as substrate for free-radical attack. Cardiac lipid (in CHCl3) was placed in a glass flask and evaporated to dryness under nitrogen at room temperature; the flask was gently rotated during evaporation to yield a thin, dry lipid film. The lipid was taken up in 10 mM Hepes-0.145M KCl, pH 7.4, and was resuspended by indirect an aerobic sonification for 15 minutes at room temperature. The liposome suspension was used immediately. […]
# c) preparation of Fe^3+ -ADP Chelate
# A chelate was formed in Hepes-KCl buffer between Fe^3+ (1.0mM FeCl3, final concentration) and ADP (10mM, final concentration) at pH 7.4 with stirring at room temperature. Chelation was allowed to proceed for 90 minutes prior to use. The chelate was prepared fresh for each days experiments to ensure iron solubility, effective chelation, and valence state. […]
# d) Thiobarbituric Acid Reaction or Determination of Malondialdehvde Equivalents Malondialdehyde (MDA) equivalents were measured as thiobarbituric acid (TBA)-reactive material by the following modification of published methods. The reaction mixture. prepared fresh daily, contained water: BHT ([…] BHT in absolute ethanol): TBA (1.5% TBA in 0.2M Tris, pH 7.0) in the volume ratio 1:1:5. To each 1.0 ml of peroxidation reaction assayed (see below), 0.35 ml reaction mixture was added. After thorough mixing, the tubes were incubated in an 80° C. shaking water bath for 30 minutes. After this time, the tubes were plunged into an ice water bath, and the reaction was immediately stopped with 0.5 ml ice-cold 91% TCA followed by 2.0 ml CHCl3 After centrifugation for 30 minutes at 2000 rpm in a Sorval HL-8 rotor (4° C.), the absorbance of the washed, pink upper phase was read at 532 nm. A standard curve (0.8-40.0 nmol MDA) was run with every assay. For each curve, MDA was freshly prepared by acidification of 1,1,3,3 -tetraethoxypropane with 75% TCA-2.3N HCl (0.15 ml acid mixture with 1.0 ml suitably diluted tetraethoxypropane). Computer-assisted regression analysis of the standard curve was used to quantify the molar amounts of MDA equivalents in the experimental samples. […]
# e) Lipid peroxidation Reaction
# Cardiac liposomes were subjected to superoxidedependent. iron-promoted peroxidation in glass vessels to avoid the well-known antioxidant effects of many common polymerizing agents used to fabricate plastic labware. […]
row,Compound,IC50
1,"CCCc1cc(C#CC2(C)CCc3c(C)c(O)c(C)c(C)c3O2)ccc1O (racemic) [Example 37, rac-3,4-Dihydro-2-[(4-hydroxy-3-propylphenyl)ethynyl]-2,5,7,8-tetramethyl-2H-1-benzopyran-6-ol]",> 1000 nM

# Molecular target: T1, Δ^5 -lipoxygenase from rat basophilic leukemia (RBL-1) cells (Rattus norvegicus, UniProt P12527)
# T1 construct: endogenous in cells; host or cells: RBL-1 rat basophilic leukemia cells (ATCC CRL 1378); 113,000×g supernatant (cytosolic fraction)
# T1 sequence (P12527 1-673): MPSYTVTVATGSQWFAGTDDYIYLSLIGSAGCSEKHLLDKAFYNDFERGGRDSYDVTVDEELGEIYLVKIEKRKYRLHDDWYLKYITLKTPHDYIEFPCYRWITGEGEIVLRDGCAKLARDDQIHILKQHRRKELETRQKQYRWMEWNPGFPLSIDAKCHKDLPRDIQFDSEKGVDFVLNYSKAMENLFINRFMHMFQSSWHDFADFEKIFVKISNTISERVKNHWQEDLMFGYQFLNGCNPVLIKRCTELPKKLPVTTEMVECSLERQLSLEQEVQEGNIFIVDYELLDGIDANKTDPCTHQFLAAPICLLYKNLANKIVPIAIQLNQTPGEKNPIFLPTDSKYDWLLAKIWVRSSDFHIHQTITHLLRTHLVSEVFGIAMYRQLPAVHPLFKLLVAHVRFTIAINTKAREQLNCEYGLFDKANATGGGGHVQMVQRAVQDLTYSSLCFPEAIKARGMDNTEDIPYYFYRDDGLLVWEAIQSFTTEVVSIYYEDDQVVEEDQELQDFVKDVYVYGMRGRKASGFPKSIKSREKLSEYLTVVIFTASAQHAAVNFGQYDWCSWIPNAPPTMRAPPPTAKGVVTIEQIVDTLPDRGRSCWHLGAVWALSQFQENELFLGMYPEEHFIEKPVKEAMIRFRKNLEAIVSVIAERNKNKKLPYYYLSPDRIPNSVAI
# Assay: In vitro test for Δ^5 -lipoxygenase inhibitors (5-LO), RBL-1 cell enzyme, 5-HETE radioimmunoassay
# Format: biochemical
# Settings: RBL-1 5-LO; 10 min preincubation; 8.25 μM arachidonic acid, 10 min at 37° C.; 5-HETE formation; read-out: 5-LO IC-50
# Procedure: IN VITRO TEST FOR Δ^5 -LIPOXYGENASE INHIBITORS Compounds of formula I of the invention were tested for their effect on Δ^5 -lipoxygenase from rat basophilic leukemia (RBL-1) cells. Materials. RBL-1 cells (CRL 1378) were obtained from the American TYpe Culture Collection, Rockville, MD. DMEM and glutamine were purchased from Flow Labs, McLean, VA. FBS (Gibco, Grand Island, NY) was heat-inactivated for 1 hour at 56° C. Reagents for protein determinations were obtained from Biorad, Rockville Center, NY. Arachidonic acid (approx. 99%), ATP (disodium slat), BHT, dextran (clinical grade), tetrasodium EDTA, gelatin, gentamycin sulfate solution, reduced glutathione, 1 M HEPES buffer, indomethacin, NaCl, reduced NADpH, Trizma 7.2, and Trizma 8.5 were purchased from Sigma Chemical, St. Louis, MO. CaCl2 dihydrate, Norit A charcoal, and citric acid monohydrate were obtained from Fisher Scientific, Pittsburgh, PA. […] MA. A synthetic 5-HETE standard was supplied by Dr. M. Rosenberger, Dept. of Medicinal Chemistry, Hoffmann-La Roche, Nutley, NJ; [see Corey, E.J., and Hashimoto, S. (1981 ) Tet. Letters, 22, 299-302 for method of preparation]. Ecoscint liquid sointillation fluid was purchased from National Diagnostics, Sommerville, NJ. Isolation of 5-lipoxygenase. […] Approximately 7-9 days after thawing, RBL-1 cells growing in log phase were seeded at a density of 7500 viable cells/ml in a closed 89-liter spinner flask. The cells were stirred constantly for 3-4 days at 37° C. until they reached a density greater than 500,000/ml but less than 800,00/ml. RBL-1 cells were harvested by centrifugation at 4° C. at 1500×g for 10 minutes and were washed 3 times with ice cold 0.05 M tris-HCl, pH 7.2, tetrasodium EDTA (buffer 1). The cells were washed last in 0.05 M Tris-HCl containing 14 μM indomethacin, 1 mM glutathione, 1.5 mM NaCl, and 1 mM tetrasodium EDTA (buffer 2), resuspended at a density of 5×108'/ml (approximately 10 ml) and disrupted manually at 4° C. using a 40 ml Dounce (type A pestle) homogenizer. After 5 minutes of homogenization. 95% cell lysis was confirmed by phase contrast microscopy. The broken cells were diluted 1:2 with buffer 2 and centrifuged at 12,380×g for 10 minutes at 4° C. to pellet cellular debris and granules. The 12,380×g supernatant was centrifuged at 113,000×g for 60 minutes to pellet microsomes. The high-speed supernatant (5.9±0.48 mg/ml protein) was frozen immediately in 1 ml aliquots using a dry ice/acetone bath. The isolated cytosolic fraction was stored in liquid N2 for up to 8 weeks without loss of 5-LO enzyme activity. Lipoxygenase Assay. Compounds Were dissolved at 25 mM concentration in DMSO, then diluted to final concentrations using 95% ethanol. For a typical enzyme assay, the partially purified 5-LO preparation was preincubated with drug or vehicle for 10 minutes at 30° C. The assay tubes were then transferred at a 37° C. water bath where they received arachidonic acid (8.25 μM final concentration) to initiate 5-LO activity. In addition to enzyme and substrate, each reaction tube contained: 12.5 μmoles of Tris-HCl (pH 7.2), 25 nmoles glutathione, 0.35 nmoles indomethacin and 1.25 μmoles of CaCl2 and ATP to yield a total of volume of 250 μl. The enzyme reaction was terminated after 10 minutes by the addition of 75μl […] citric acid to yield pH 3.5. The samples were immediately cooled on ice and neutralized by dilution with 0.05 M Tris-HCl, pH 8.5, which contained 25 mg/1 BHT. A boiled cytosol control was placed at the end of each assay to measure non-enzymatic oxidation of arachidonic acid. The mean specific activity of the 5-LO enzyme preparation was approximately 66.16±14.39 pmol 5-HETE/min/mg protein. Radioimmunoassay for 5-HETE. Under the assay conditions described, the 5-LO catalyzed the conversion of arachidonic acid to 5-HPETE which, as a consequence o peroxidase activity, was reduced to 5-HETE. A specific radioimmunoassay was employed to quantitate the amount (pmoles) of 5-HETE formed during the enzyme reaction. […]
row,Compound,IC50
1,"Cc1c(C)c2c(c(C)c1O)CCC(C)(C#Cc1ccccc1NC(=O)C(F)(F)F)O2 (racemic) [Example 44, rac-2,2,2-Trifluoro-N-{2-[(3,4-dihydro-6-hydroxy-2,5,7,8-tetramethyl-2H-1-benzopyran-2-yl)ethynyl]phenyl}acetamide]",10 nM
2,"Cc1c(C)c2c(c(C)c1O)CCC(C)(C#Cc1ccc3c(c1)N(C(=O)C(F)(F)F)CCO3)O2 (racemic) [Example 45, rac-3,4-Dihydro-6-[(3,4-dihydro-6-hydroxy-2,5,7,8-tetramethyl2H-1-benzopyran-2-yl)ethynyl]-4(trifluoroacetyl)-2H-1,4-benzoxazine]",45 nM
3,"Cc1c(C)c2c(c(C)c1O)CCC(C)(C#Cc1ccc3c(c1)NCCO3)O2 (racemic) [Example 47, rac-2-[(3,4-dihydro-2H-1,4-benzoxazine-6-yl)ethynyl]-3,4-dihydro-2,5,7,8-tetramethyl-2H-1-benzopyran-6-ol hydrochloride]",18 nM
4,"CC(=O)Oc1cc(CCC2(C)CCc3c(C)c(O)c(C)c(C)c3O2)ccc1O (racemic) [Example 67, rac-4-[2-(3,4-Dihydro-6-hydroxy-2,5,7,8-tetramethyl-2H-1-benzopyran-2-yl)ethyl]-1,2-benzenediol-2-acetate]",38 nM
5,"COc1cc(CN)cc(CCC2(C)CCc3c(C)c(O)c(C)c(C)c3O2)c1O (racemic) [Example 68, rac-{2-[5-(Aminomethyl)-2-hydroxy-3-methoxyphenyl]ethyl}-3,4-dihydro-2,5,7,8-tetramethyl-2H-1-benzopyran-6-ol hydrochloride]",70 nM
